From PMC9311798, “A Novel Class of Potent Anti-Tyrosinase Compounds with Antioxidant Activity, 2-(Substituted phenyl)-5-(trifluoromethyl)benzo[d]thiazoles: In Vitro and In Silico Insights” (Antioxidants, 2022)

Experiments:
[1] = system: B16F10 murine melanoma cells; experiment: Intracellular melanin content in α-MSH/IBMX-stimulated cells; assay type: cell-based
Method: The cultured cells were rinsed with PBS twice and pellets were dissolved in 200 µL of 1N-NaOH solution containing 10% DMSO for 1 h at 60 °C. Cell lysates were then transferred to a 96-well plate, and the melanin absorbances were measured in aqueous DMSO at 405 nm using a microplate reader (VersaMax^TM, Molecular Devices, Sunnyvale, CA, USA).

[2] = DPPH radical scavenging activity assay; settings: compound 1.0 mM, 30 min in the dark, 517 nm
Method: The DPPH (2,2-diphenyl-1-picrylhydrazyl) scavenging activities of synthesized compounds 1a–1p were investigated as previously described, with minor modifications. A dimethyl sulfoxide solution (20 µL) containing 10 mM of each compound was mixed with DPPH methanol solution (0.2 mM, 180 µL) in the wells of a 96-well plate, and placed in the dark for 30 min at room temperature. At 517 nm, optical densities were measured using a microplate reader (VersaMax^TM, Molecular Devices, Sunnyvale, CA, USA). The DPPH radical scavenging ability of the 2-arylbenzothiazole derivatives was compared with that of L-ascorbic acid, the positive control. All experiments were performed independently in triplicate.

## Oc1ccc(-c2nc3cc(C(F)(F)F)ccc3s2)c(O)c1 [Compound 1b, 4-(5-(Trifluoromethyl)benzo[d]thiazol-2-yl)benzene-1,3-diol]
[1]; 10 µM, compared with kojic acid 20 µM
  inhibition of α-MSH/IBMX-induced intracellular melanin increase: more potently inhibited α-MSH/IBMX-induced increases in melanin than kojic acid at 20 µM
[1]; 20 µM, α-MSH/IBMX co-treated cells
  intracellular melanin content, lower than untreated control group: 20%
[1]; 5, 10, 20 µM, α-MSH + IBMX, 48 h
  effect on intracellular melanin content: significantly and concentration-dependently reduced intracellular melanin increases
[2]
  DPPH radical scavenging activity: moderate DPPH radical scavenging efficacy
